Series [1] concerns brain endothelial cells (BECs). Put plainly: Mitochondrial superoxide (MitoSox) in TNF-α stimulated brain endothelial cells. As to conditions: BECs stimulated by TNF-a (10 ng/ml) for 4 hours, then treated. The format is cell-based, mouse. On the procedure: Next tested was the potential of reparative effects of two non-biologics. One is a triblock biocompatible polymer, known as poloxamers (P188), that was approved by FDA for numerous applications. […] The other compound is N-acetylcysteine (NAC), which is also an FDA-approved antioxidant that is associated with health benefits. […] Using a fluorophore (MitoSox) that preferentially binds to superoxide, the extent of oxidative stress in response to TNF-a were recorded and quantified. Oxidative stress is an important determinant of endothelial injury, which influences a number of cellular responses by activating several intracellular signaling cascades in endothelial cells, leading to the progression of vascular diseases. […] TNF-a induced a significant increase in oxidative stress and, if left untreated, the superoxide level persisted (FIG. 3B). […] This sequence of events may be engineered to accommodate short- and long-term beneficial responses. […]
Measurement of Mitochondrial Reactive Oxygen Species (ROS). Superoxide was measured using a MitoSoX™ Red mitochondrial superoxide indicator, according to the manufacturer's instructions. […] After washing three times with PBS, images were taken with a fluorescent microscope and fluorescence intensities were calculated using Nikon ND2 software.

The nature of series [2]: Drug encapsulation (loading) efficiency of PLGA NPs. Type of series: physicochemical. The following applies: in PLGA NPs. The protocol: Drug Encapsulation Efficiency. To find the amount of P188 and NAC within the NPs, P188 was fluorescently modified (TAMRA-P188) and loaded into the NPs. Fluorescence intensity of TAMRA-P188 in the supernatant was quantified over time using a plate reader. NAC was measured with high-performance liquid chromatography (HPLC). The results were converted into concentrations, and the loading efficiency for P188 and NAC were 85% and 28%, respectively, and calculated using the following equation.

A short description of series [3]: In vitro drug release from PLGA NPs. Type of series: physicochemical. The protocol:
In vitro Drug Release. For the release studies, 1 mg each from all prepared NPs were dispersed in 1 ml of release medium (pH 7.4) each to form a suspension. Each suspension was in three replicates in 1.5 ml centrifuge tubes and incubated at 37° C. The release buffers were collected after centrifugation at 15,000 rpm for 30 min. The release buffers were replaced with fresh buffer at different periods and subjected to analysis using HPLC. The cumulative release of the model drug from each loaded NPs was plotted against time.

For another series, the system named is MMP-9. Nature of the series: MMP-9 enzyme activity assay (EnzChek) in cells exposed to microcavitation. Type of series: cell-based, mouse. As to conditions: microcavitation (5 blasts), pretreatment 2 h: doxycycline 20 mM, phenanthroline 0.5 mM. On the procedure:
(§1) MMPs activities assay, Fold change, and Permeability measurement: EnzChek MMP-2 & 9 Assay Kit were used for MMP-2 & 9 activity assays. Cells were cultured in endothelial cell complete media and divided into the following groups: control (no treatment), exposed (5 blasts), doxycycline (20 mM)+exposed (5 blasts), doxycycline (20 mM), and phenanthroline (0.5 mM, positive control). Before initiating experiments, cells were washed with PBS, and no serum media was applied. Dishes in the treatment groups were pretreated with doxycycline or phenanthroline for 2 h at 37° C. Cells were exposed to microcavitation and incubated at 37° C. for 1 h. All groups were homogenized with lysis buffer containing 0.1% Triton-X 100, and protein was estimated with Pierce BCA Protein Assay Kit. Equal amounts of protein from each sample were aliquoted in lysis buffer. Samples were then analyzed using a plate reader at excitation 495 nm and 515 nm to quantitate MMP-2 & 9 activities. Primary brain endothelial cells were grown under the conditions described above. At the end of all experimental conditions, RNA from the cells was extracted and used for PCR analysis of the MMP-2 & 9 gene expressions. Finally, the permeability of the brain endothelium model exposed to doxycycline, P188, or in combination of them both was measured.

The subject of a further series is MMP-2. Nature of the series: MMP-2 enzyme activity assay (EnzChek) in cells exposed to microcavitation. The format is cell-based, mouse. The following applies: microcavitation (5 blasts), pretreatment 2 h: doxycycline 20 mM, phenanthroline 0.5 mM. The protocol:
as §1

A value given as a limit tells only on which side of the number the result lay.

`CC(=O)N[C@@H](CS)C(=O)O` [NAC, N-acetylcysteine]: in series [1], the “superoxide level (oxidative stress)” value was “noticeable attenuation of superoxide”. This compound also came in with a loading efficiency in series [2] of 28%. For the same compound, the “time within which most of the release was achieved” value in series [3] was at most 24 h. Further, in series [3] (in 7 days), the release is given as about 100%. Also, the “time required to reach a half of the maximum release” value in series [3] (pH 7.4, 37° C., linear regression) was about 7.7 h.

In the case of `c1cnc2c(c1)ccc1cccnc12` [phenanthroline], the MMP-9 enzymatic activity entry in the series on MMP-9 is listed as “inhibited”. Also, the MMP-2 enzymatic activity entry with MMP-2 is reported as “inhibited”.

The values above are taken from US20220378696A1, “TARGET DELIVERY OF NON-BIOLOGICS THROUGH NANOTECHNOLOGY FOR TISSUE REPAIR” (BOARD OF REGENTS, THE UNIVERSITY OF TEXAS SYSTEM, priority 2019, published 2022).
